Drawing on patent publication US20110098309A1, “METHODS OF INHIBITING THE FORMATION OF AMYLOID-BETA DIFFUSABLE LIGANDS USING ACYLHYDRAZIDE COMPOUNDS” (priority 2007, published 2011), this text covers IC50 for 37 compounds.

Each structure is given as a SMILES string.

One may read the IC50 as the point on the concentration scale where inhibition reaches its midpoint. Lower therefore signals greater potency in that assay.

Sequence of Aβ1-42 (P05067 672-713 limits assumed): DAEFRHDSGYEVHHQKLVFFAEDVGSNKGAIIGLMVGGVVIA

The test addresses Aβ1-42 (Homo sapiens, UniProt P05067). Description: FRET assay of Aβ1-42 oligomer (ADDL) assembly inhibition. The note with it: 0.2 μM FITC-Aβ(1-42) and 0.8 μM Aβ(1-42), 37° C., six concentrations from about 10 μM to about 0.03 μM. In kind it is biochemical. An excerpt: Fluorescence (or Förster) Resonance Energy Transfer (FRET) is a distance-dependent, non-radiative transfer of energy in which the de-excitation of one fluorophore (donor) is coupled to excitation of another fluorophore (acceptor). FRET occurs if (1) the quantum of energy emitted by a donor fluorophore corresponds to an acceptor fluorophore's excitation energy, (2) the orientations of donor and acceptor transition dipoles are nearly parallel and (3) the donor fluorescent emission spectrum overlaps the acceptor absorption spectrum.
In this assay, assembly of Aβ1-42 oligomer formation is monitored by FRET using N-terminal conjugates of fluorescein-Aβ1-42 as both the donor and acceptor fluorophore (fluorescein-fluorescein Ro˜45 Å). […] Inhibition of Aβ1-42 assembly is observed as the absence or attenuation of fluorescein quenching.
FRET and FP assays are performed in 384-well Corning Non-Binding Surface, black, opaque microtiter plates, and the assay buffer consists of 25 mM MOPS-Tris (pH 8.0) with 100 mM MgCl2. The assay volume, containing 0.2 μM FITC-Aβ(1-42) and 0.8 μM Aβ(1-42), is 50 μl and the temperature is 37° C. […] Kinetic traces are collected by recording fluorescence intensity and polarization readings every five minutes over about a three hour time course. […] Positive control reactions contain all buffer components in the absence of added small molecule or antibody reagents. To test for ADDL assembly inhibition, the compound was incubated with the peptide mixture at six concentrations from about 10 μM decreasing to about 0.03 μM.
Take `COc1ccc(O)c(/C=N/NC(=O)c2ccc(-n3c(C)ccc3C)cc2)c1` [Compound 56, 4-(2,5-dimethyl-1H-pyrrol-1-yl)-N′-(2-hydroxy-5-methoxy-benzylidene) benzohydrazide]: half-maximal inhibition (IC50) required 6.1 µM.
For `COc1ccc(O)c(/C=N/NC(=O)c2ccc3ccccc3c2O)c1` [Compound 38, 1-hydroxy-N′-(2-hydroxy-5-methoxybenzylidene)-2-naphtho-hydrazide] the value was 1.2 µM; for `COc1ccc(O)c(/C=N/NC(=O)c2cc(-c3ccc4c(c3)OCO4)n[nH]2)c1` [Compound 78, 3-(benzo[d][1,3]dioxol-5-yl)-N′-(2-hydroxy-5-methoxybenzylidene)-1H-pyrazole-5-carbohydrazide], 11.6 µM.
For `COc1ccc(O)c(/C=N/NC(=O)c2ccccc2NS(=O)(=O)c2ccc(Cl)cc2)c1` [Compound 71, 4-chloro-N-(2-(2-(2-hydroxy-5-methoxy-benzylidene)hydrazine-carbonyl)phenyl)benzene-sulfonamide] the value was 9.7 µM; for `Cc1cccc(C(=O)N/N=C(/CC(=O)c2cccs2)C(F)(F)F)c1O` [Compound 25, 2-hydroxy-3-methyl-N′-(1,1,1-trifluoro-4-oxo-4-(thiophen-2-yl)butan-2-ylidene)benzohydrazide], 16.3 µM.
As to `O=C(N/N=C/c1cc(Cl)cc(Br)c1O)c1ccccc1O` [Compound 108, N′-(3-bromo-5-chloro-2-hydroxybenzylidene)-2-hydroxybenzohydrazide], the IC50 worked out at 41.7 µM.
Take `COc1ccc(O)c(/C=N/NC(=O)c2ccc(Cl)cc2O)c1` [Compound 51, 4-chloro-2-hydroxy-N′-(2-hydroxy-5-methoxy-benzylidene)benzohydrazide]: the IC50 worked out at 4.2 µM.
`Cn1nccc1C(=O)C/C(=N/NC(=O)c1ccccc1O)C(F)(F)F` [Compound 9, 2-hydroxy-N′-(1,1,1-trifluoro-4-(1-methyl-1H-pyrazol-5-yl)-4-oxobutan-2-ylidene) benzohydrazide]: the IC50 turned out to be 8.2 µM.
The figure for `COc1ccc(C(=O)N/N=C/c2cc(OC)ccc2O)c(O)c1` [Compound 76, 2-hydroxy-N′-(2-hydroxy-5-methoxy-benzylidene)-4-methoxy-benzohydrazide] is 11.1 µM.
For `O=C(C/C(=N/NC(=O)c1cc(Cl)ccc1O)C(F)(F)F)c1cccs1` [Compound 20, 5-chloro-2-hydroxy-N′-(1,1,1-trifluoro-4-oxo-4-(thiophen-2-yl)butan-2-ylidene)benzohydrazide] the value was 11.9 µM.
The compound `O=C(N/N=C/c1c(O)ccc2ccccc12)c1sc2cc(F)ccc2c1Cl` [Compound 61, 3-chloro-6-fluoro-N′-((2-hydroxynaphthalen-1-yl)methylene) benzo[b]thiophene-2-carbohydrazide] yielded an IC50 of 6.7 µM.
The figure for `O=C(N/N=C/c1cccc(O)c1O)c1ccccc1O` [Compound 86, N′-(2,3-dihydroxy-benzylidene)-2-hydroxy-benzohydrazide] is 17.4 µM; for `O=C(C/C(=N/NC(=O)c1sc2cc(F)ccc2c1Cl)C(F)(F)F)c1cccs1` [Compound 24, 3-chloro-6-fluoro-N′-(1,1,1-trifluoro-4-oxo-4-(thiophen-2-yl)butan-2-ylidene)benzo[b]thiophene-2-carbohydrazide] it is 16.1 µM.
For `C/C(=N\NC(=O)c1cc(C)n[nH]1)c1ccccc1O` [Compound 112, N′-(1-(2-hydroxyphenyl)ethylidene)-3-methyl-1H-pyrazole-5-carbohydrazide] the value was 45.4 µM.
For `C/C(CC(=O)c1ccco1)=N\NC(=O)c1sc2cc(F)ccc2c1Cl` [Compound 4, 3-chloro-6-fluoro-N′-(4-(furan-2-yl)-4-oxobutan-2-ylidene)benzo[b]-thiophene-2-carbohydrazide] the value was 5.9 µM; for `O=C(N/N=C/c1oc2ccc([N+](=O)[O-])cc2c1O)c1ccccc1O` [Compound 88, 2-hydroxy-N′-((3-hydroxy-5-nitro-benzofuran-2-yl)methylene) benzohydrazide], 20.4 µM; for `O=C(C/C(=N/NC(=O)c1ccccc1O)C(F)(F)F)c1ccc(Cl)s1` [Compound 19, N′-(4-(5-chlorothiophen-2-yl)-1,1,1-trifluoro-4-oxobutan-2-ylidene)-2-hydroxy benzohydrazide], 11.5 µM.
The compound `CC(C)(C)C(=O)C/C(=N/NC(=O)c1sc2cc(F)ccc2c1Cl)C(F)(F)F` [Compound 12, 3-chloro-6-fluoro-N′-(1,1,1-trifluoro-5,5-dimethyl-4-oxohexan-2-ylidene)benzo[b]thiophene-2-carbohydrazide] returned an IC50 of 8.6 µM.
For `COc1ccc(O)c(/C=N/NC(=O)c2scc(C)c2Cl)c1` [Compound 70, 3-chloro-N′-(2-hydroxy-5-methoxy-benzylidene)-4-methylthiophene-2-carbohydrazide] the value was 9.4 µM; for `COc1ccc(O)c(/C=N/NC(=O)c2cc(Br)ccc2O)c1` [Compound 98, 5-bromo-2-hydroxy-N′-(2-hydroxy-5-methoxybenzylidene)benzohydrazide], 31.9 µM; for `O=C(N/N=C(/CC(=O)N1CCOCC1)C(F)(F)F)c1ccccc1O` [Compound 18, 2-hydroxy-N′-(1,1,1-trifluoro-4-morpholino-4-oxobutan-2-ylidene)benzohydrazide], 10.4 µM.
Compound `COc1ccc(O)c(/C=N/NC(=O)c2c(O)cccc2F)c1` [Compound 95, 2-fluoro-6-hydroxy-N′-(2-hydroxy-5-methoxybenzylidene)benzohydrazide] showed an IC50 of 26.2 µM.
For `COc1ccc(O)c(/C=N/NC(=O)c2cccc(C)c2O)c1` [Compound 63, 2-hydroxy-N′-(2-hydroxy-5-methoxy-benzylidene)-3-methyl-benzohydrazide] the value was 7 µM; for `Cn1cc(I)c(C(=O)N/N=C/c2c(O)ccc3ccccc23)n1` [Compound 54, N′-((2-hydroxy-naphthalen-1-yl)methylene)-4-iodo-1-methyl-1H-pyrazole-3-carbohydrazide], 5 µM.
The figure for `Cc1csc(C(=O)N/N=C/c2cc(Cl)ccc2O)c1Cl` [Compound 92, 3-chloro-N′-(5-chloro-2-hydroxybenzylidene)-4-methylthiophene-2-carbohydrazide] is 23.7 µM; for `O=C(C/C(=N/NC(=O)c1cnn(-c2ccccc2)c1C(F)(F)F)C(F)(F)F)c1cccs1` [Compound 34, 1-phenyl-N′-(1,1,1-trifluoro-4-oxo-4-(thiophen-2-yl)butan-2-ylidene)-5-(trifluoromethyl)-1H-pyrazole-4-carbohydrazide] it is 40.9 µM; for `COc1ccc(/C=N/NC(=O)c2ccccc2O)c(O)c1` [Compound 81, 2-hydroxy-N′-(2-hydroxy-4-methoxy-benzylidene)benzohydrazide] it is 15 µM.
For the compound `COc1ccc(O)c(/C=N/NC(=O)c2cccc3c2NC(=O)C3)c1` [Compound 52, N′-(2-hydroxy-5-methoxy-benzylidene)-2-oxoindoline-7-carbohydrazide], 4.2 µM corresponded to half-maximal inhibition (IC50).
Compound `CC(C)(C)C(=O)C/C(=N/NC(=O)c1ccccc1O)C(F)(F)F` [Compound 7, 2-hydroxy-N′-(1,1,1-trifluoro-5,5-dimethyl-4-oxohexan-2-ylidene)benzohydrazide] yielded an IC50 of 7.4 µM.
For the compound `O=C(N/N=C(/CC(=O)N1CCN(Cc2ccccc2)CC1)C(F)(F)F)c1ccccc1O` [Compound 3, N′-(4-(4-benzylpiperazin-1-yl)-1,1,1-trifluoro-4-oxobulan-2-ylidene)-2-hydroxy-benzohydrazide], it took 5.2 µM to reach half-maximal inhibition (IC50).
Regarding `COc1ccc(O)c(/C=N/NC(=O)c2[nH]c3ccccc3c2Cl)c1` [Compound 44, 3-chloro-N′-(2-hydroxy-5-methoxybenzylidene)-1H-indole-2-carbohydrazide], the IC50 stood at 3.2 µM.
For `O=C(C/C(=N/NC(=O)c1[nH]c2ccccc2c1Cl)C(F)(F)F)c1cccs1` [Compound 30, 3-chloro-N′-(1,1,1-trifluoro-4-oxo-4-(thiophen-2-yl)butan-2-ylidene)-1H-indole-2-carbohydrazide] the value was 28.3 µM; for `NC(=O)c1ccccc1/C=N/NC(=O)c1ccccc1O` [Compound 64, 2-((2-(2-hydroxybenzoyl)hydrazono)methyl)benzamide], 7.1 µM.
For `COc1ccc(O)c(/C=N/NC(=O)c2cc(F)ccc2O)c1` [Compound 75, 5-fluoro-2-hydroxy-N′-(2-hydroxy-5-methoxy-benzylidene)benzohydrazide] the value was 10.9 µM; for `CCN(CC)c1ccc(/C=N/NC(=O)c2ccccc2O)c(O)c1` [Compound 80, N'-(4-(diethylamino)-2-hydroxy-benzylidene)-2-hydroxy-benzohydrazide], 14.4 µM.
The figure for `O=C(N/N=C/c1cc(Br)ccc1O)c1ccccc1O` [Compound 50, N′-(5-bromo-2-hydroxy-benzylidene)-2-hydroxybenzohydrazide] is 4.1 µM.
For the compound `O=C(N/N=C/c1cc(C2CCCCC2)cc(Cl)c1O)c1ccccc1O` [Compound 46, N′-(3-chloro-5-cyclohexyl-2-hydroxybenzylidene)-2-hydroxybenzo-hydrazide], the IC50 came to 3.3 µM.
